# Reference: US20040029944A1 (priority 2001, published 2004)
# Read-outs that look alike come from different tables or passages of the source.
# Tested on: Phytophthora infestans
# Assay type: in vivo
# Settings: individual active compound, tomato leaves, protective, evaluated after 6 days
smiles,measurement,setting,value
"Cc1ccc(-c2c(Cl)nc(C#N)n2S(=O)(=O)N(C)C)cc1 [Ia, cyazofamid]",Efficacy in % of the untreated control,0.05 ppm in the spray liquor,58%
same,Efficacy in % of the untreated control,0.1 ppm in the spray liquor,74%
same,Efficacy in % of the untreated control,0.2 ppm in the spray liquor,84%
